In patent publication US12458612B2, “Combination therapy comprising compounds of formula (I) and GLP-1 receptor agonists” (GENFIT, priority 2019, dated 2025):

Columns and labels:
[1] = test system: NASH-B6 mice; assay: Body weight, adiposity and food intake, 8 weeks in NASH-B6 mice (Example 6); type: in vivo; conditions: liraglutide 0.02 mg/kg/day, 8 weeks (FIG. 13B)
Experimental: Male C57BL/6NTac mice (Taconic, USA) were fed with the GAN diet (D09100310 Research Diet) 31 weeks prior to study start to induce NASH pathology (NASH-B6 model). Prior to treatment, blood was collected by retro-orbital sinus puncture after a 6 h-fasting period to measure plasma ALT, AST, TIMP Metallopeptidase Inhibitor 1 (TIMP1, a surrogate marker of liver fibrosis). Blood glucose was measured directly from the tail vein using a WellionVet glucometer (CALEA) after a 6 h-fasting period. Ketone bodies (KB) was also measured directly from the tail vein using a FreeStyle Optium Neo ketometer. Mice were randomized into treatment groups (n=10/group) based on body weight, glycemia, ketonemia and plasma ALT, AST and TIMP1. They received either vehicles, elafibranor (3 mg/kg/day, per os), liraglutide (0.01 mg/kg, BID, SC) or both elafibranor and liraglutide for 8 weeks. To avoid GLP-1 receptor agonist-induced hypophagia, an up-titration protocol was applied for liraglutide during the first 3 weeks of treatment (starting with 0.001 mg/kg BID). Vehicle-dosed chow-fed mice served as additional controls (R03-10 U8211G10R, SAFE).
Body weight and food intake were monitored each day during the treatment period. On the last day of treatment, serum samples were obtained after retro-orbital sinus puncture blood sampling and mice were sacrificed. […]

[2] = test system: DIO-NASH mice; assay: Hepatic triglyceride content, 40 days in DIO-NASH mice (Example 1); type: in vivo; conditions: ELA 10 mg/kg/day, SEMA 10 nmol/kg/day, 40 days (FIG. 3)
Experimental: (§1) The effects of elafibranor alone, semaglutide alone and the combination of both were assessed in DIO-NASH mice (C57BL6JRj mice fed with a Amylin Liver NASH Model diet (AMLN) (Research Diet, 40% fat (18% trans-fat), 40% carbohydrate (20% fructose), and 2% cholesterol) (36 weeks prior to study start). 41 weeks old male DIO-NASH mice were fed a vehicule (n=12), or vehicule supplemented with elafibranor (10 mg/kg/day), or semaglutide alone (10 nmol/kg) (titration to final dose over 5 days using increments of 0.08 mg/mL) or in combination (n=12 per group).
On the last day of treatment, plasma samples were obtained after cardiac puncture blood sampling and mice were sacrificed. The liver was rapidly excised for biochemical and histological analyses.
Approximately 100 mg of frozen liver tissue were homogenized with a tissue homogenizer (Precellys®24, Bertin Technologies, France) in 150 mM NaCl buffer, containing 15.4 mM NaN3. Lipid fractions in homogenates were extracted with chloroform—methanol (2:1, v/v) followed by measurement of the triglycerides (Biolabo cat #80019).

[3] = test system: DIO-NASH mice; assay: Glycemia (plasma glucose), 40 days in DIO-NASH mice (Example 1); type: in vivo; conditions: ELA 10 mg/kg/day, SEMA 10 nmol/kg/day, 40 days (FIG. 4)
Experimental: as §1
(§2) Sampling from tail vein were done during the protocol for, blood glucose, plasma insulin, alanine transaminase, aspartate transaminase, triglycerides, total cholesterol dosages.
The plasma glucose level was measured using the Randox kit for Daytona automate (Randox, cat #GL 3815) according to the manufacturer's recommendations. This method was based on a colorimetric assay without any deproteinization of the sample. Briefly, glucose oxidase digestion of the sample led to hydrogen peroxide synthesis. In the presence of phenol and 4-aminophenazone, the hydrogen peroxide was catalyzed by a peroxidase and formed a dye: the quinoneimin. The coloration intensity was directly proportional to the glucose concentration and was measured at 505 nm. Results were expressed in mg/dL.

[4] = test system: DIO-NASH mice; assay: Insulinemia (plasma insulin), 40 days in DIO-NASH mice (Example 1); type: in vivo; conditions: ELA 10 mg/kg/day, SEMA 10 nmol/kg/day, 40 days (FIG. 5)
Experimental: as §1, §2
The plasmatic insulin was measured using a solid phase two-site enzyme immunoassay from Crystal Chem Inc. (cat #90010). Briefly, 95 μL of guinea-pig anti-insulin serum and 5 μL of diluted sample (or standard) were dispensed per well into a 96-well plate. […] The reaction was then stopped by adding 100 μL of stop solution and absorbance was immediately measured at 450 nm (subtracting wave length: 630 nm). The intensity of the coloration was proportional to the amount of insulin initially present in the sample and was calculated using a standard serum. […]

[5] = test system: DIO-NASH mice; assay: Histological assessment of NASH, 12 weeks in DIO-NASH mice (Example 3); type: in vivo; conditions: monotherapy low dose ELA 10 mg/kg/day or SEMA 0.3 nmol/kg/day
Experimental: Male C57BL/6JRj mice were fed with the AMLN diet 35 weeks prior to study start (DIO-NASH model). Mice with biopsy confirmed steatosis (score ≥2) and fibrosis (score ≥1) were randomized into treatment groups (n=12-14 per group). Mice received either vehicles, elafibranor (10 mg/kg/day, per os), semaglutide (0.3 nmol/kg/day, SC) or both elafibranor and semaglutide for 12 weeks. Suboptimal drug doses were used in this study. To avoid SEMA-induced hypophagia, an up-titration protocol was applied during the first 3 weeks of treatment.
On the last day of treatment, plasma samples were obtained after cardiac puncture blood sampling and mice were sacrificed. The liver was rapidly excised for histology and biochemical and transcriptomic analyses.
Liver sections were prepared and stained with hematoxylin eosin safranin (HES) as described in Example 1. The histological features of NASH (steatosis, ballooning, lobular inflammation and fibrosis) were assessed using the NASH Clinical Research Network Scoring System by operators blinded to the experimental groups (Kleiner 2005, Brunt 1999). Steatosis score, activity index (hepatocyte ballooning+lobular inflammation) and NAFLD activity score (NAS) were calculated. Number of inflammatory foci was counted per field using a 200× magnification.

[6] = test system: TNFα secretion in LPS-activated macrophages (THP-1); assay: TNFα secretion in LPS-activated THP-1 macrophages, combination matrix, HTRF (Example 4); type: cell-based, Human; conditions: GLP-1 receptor agonist alone; LPS-activated THP1 macrophages (FIGS. 11A-B)
Experimental: Human_THP-1 monocytes were seeded at a density of 25,000 cells per well in 384-well plate in RPMI1640 (Gibco, 21875) supplemented with 10% FBS, 1% Penicillin-streptomycin (Gibco, 15140122) and 25 mM Hepes (Gibco, 15630080) and differentiated into macrophages using PMA (Phorbol 12-myristate 13-acetate, Sigma, P8139) at the final concentration of 100 ng/ml for 24 hours.
A 2 component combination matrix was prepared. ELA and GLP-1 receptor agonists stocks were serially diluted in DMSO in 3-points series in a row (ELA) and a 8-points series in a column of a 96-well plate for GLP1RA. Subsequently, the 3×8 combination matrix was generated by 1:1 mixing of all single agent concentrations.
After 24 hrs with PMA, medium was removed, and replaced by serum free RPMI. […]
Synergism between compounds was determined using the Excess Over Bliss (EOB) method.
The values obtained in the TNFα HTRF assay were first transformed into percentage inhibitions over LPS control. Then, using these percentage inhibitions, EOB were calculated. Expected Bliss additivism score (E) was firstly determined by the equation: E=(A+B)−(A×B) where A and B are the percentage inhibition of elafibranor (A) and GLP-1 analogue (B) at a given dose.
The total Bliss score was calculated by addition of all EOB.

[7] = test system: DIO-NASH mice; assay: Plasma ALT and CRP in DIO-NASH mice, low/high dose semaglutide (Example 7); type: in vivo
Experimental: (§3) The effects of elafibranor alone, semaglutide (low and high doses) alone and their combination were assessed in DIO-NASH mice (C57BL6JRj mice fed with a Amylin Liver NASH Model diet (AMLN) (Research Diet, 40% fat (18% trans-fat), 40% carbohydrate (20% fructose), and 2% cholesterol) (35 weeks prior to study start). Mice with biopsy confirmed steatosis (score≥2) and fibrosis (score≥1) were randomized into treatment groups (n=12 per group). Mice received either vehicles, elafibranor (10 mg/kg/day, per os), low-dose semaglutide (0.3 nmol/kg/day, SC), high-dose semaglutide (10 nmol/kg/day, SC) or elafibranor (10 mg/kg/day) and semaglutide (0.3 nmol/kg/day) in combination.
On the last treatment day, plasma samples were obtained after cardiac puncture blood sampling and mice were sacrificed. The liver was rapidly excised for transcriptomic analyses.
Alanine aminotransferase (ALT) level was measured using Cobas™ C-501 autoanalyzer according to the manufacturer's instructions. C-reactive protein (CRP) concentration was measured by ELISA (Mouse C-Reactive Protein/CRP Immunoassay MCRP00, R&D Systems).

[8] = test system: DIO-NASH mice; assay: Liver transcriptomic and gene ontology analysis in DIO-NASH mice (Example 7); type: in vivo
Experimental: as §3, with “combination. […]” for “combination.”
Total RNA was isolated from mice livers using Nucleospin® 96 RNA kit (Macherey Nagel) following manufacturer's instructions. […] The parameters used are an end minimum quality level of 25 and a minimum read length of 50. The unaligned reads were aligned to the Mus musculus mm10 reference genome using the software STAR version 2.5.3. […] Briefly, the count matrix produced by FeatureCounts was analyzed by the DESeqDataSetFromMatrix( ) function followed by the DEseq( ) function from the DESeq2 library. […]
Each metascape analysis was exported as Excel file. The files were imported in R V using the read_excel function from the readxl library (version 1.3.1). […]

Compound	hypophagia (energy consumption) [1]	liver fat / hepatic triglyceride content [2]	glycemia [3]	insulinemia [4]	mice showing NAS reduction beyond 1 stage [5]	maximal effect, TNFα inhibition [6]	decrease of plasma CRP relative to AMLN-fed vehicle group ([7]; high-dose semaglutide 10 nmol/kg/day SC (FIG. 18))	effect on plasma ALT ([7]; low dose semaglutide 0.3 nmol/kg/day SC (FIG. 17))	effect on plasma CRP ([7]; low-dose semaglutide 0.3 nmol/kg/day SC (FIG. 18))	hepatic gene signature (gene ontology: inflammatory response, cytokine production, immune cell activation and migration) ([8]; high-dose semaglutide 10 nmol/kg/day (FIG. 19))	hepatic gene signature (gene ontology: inflammatory pathways) ([8]; low-dose SEMA 0.3 nmol/kg/day (FIG. 19))
CCCCCCCCCCCCCCCC(=O)N[C@@H](CCC(=O)NCCCC[C@H](NC(=O)[C@H](C)NC(=O)[C@H](C)NC(=O)[C@H](CCC(N)=O)NC(=O)CNC(=O)[C@H](CCC(=O)O)NC(=O)[C@H](CC(C)C)NC(=O)[C@H](Cc1ccc(O)cc1)NC(=O)[C@H](CO)NC(=O)[C@H](CO)NC(=O)[C@@H](NC(=O)[C@H](CC(=O)O)NC(=O)[C@H](CO)NC(=O)[C@@H](NC(=O)[C@H](Cc1ccccc1)NC(=O)[C@@H](NC(=O)CNC(=O)[C@H](CCC(=O)O)NC(=O)[C@H](C)NC(=O)[C@@H](N)Cc1cnc[nH]1)[C@@H](C)O)[C@@H](C)O)C(C)C)C(=O)N[C@@H](CCC(=O)O)C(=O)N[C@@H](Cc1ccccc1)C(=O)N[C@H](C(=O)N[C@@H](C)C(=O)N[C@@H](Cc1c[nH]c2ccccc12)C(=O)N[C@@H](CC(C)C)C(=O)N[C@H](C(=O)N[C@@H](CCCNC(=N)N)C(=O)NCC(=O)N[C@@H](CCCNC(=N)N)C(=O)NCC(=O)O)C(C)C)[C@@H](C)CC)C(=O)O [liraglutide]	no hypophagia effect	–	–	–	–	–	–	–	–	–	–
semaglutide: commercially available GLP-1 receptor agonist	–	significant beneficial effect	no beneficial effect	significant beneficial effect	None of the mice	29%	43%	inefficient	inefficient	reverted the pathological signature	inefficient
